Data from ChEMBL document CHEMBL2417438, “Preparation and antitrypanosomal activity of secochiliolide acid derivatives” (Bioorg Med Chem Lett, 2013).
Values after ≈ are worked out from the molar mass of the structure shown. Active and inactive are the calls of the source. The calls are words filed in the database; no cut-off is given here.

Assays:
[1] = system: Trypanosoma cruzi; assay: Antiparasitic activity against epimastigotes of Trypanosoma cruzi assessed as inhibition of parasite proliferation; type: functional, organism-based
[2] = system: Trypanosoma cruzi; assay: Antiparasitic activity against epimastigotes of Trypanosoma cruzi assessed as inhibition of parasite proliferation at 1 to 10 ug/ml; type: functional, organism-based
[3] = Trypanosoma cruzi, read-out: IC50

Structure (SMILES) | IC50 [1, 3] | IC50 [1] | inhibition [2]
CC(C)=C1CC[C@@H](C)[C@]2(C[C@@H](c3ccoc3)OC2=O)[C@H]1CCNC(=O)OC(C)(C)C | 2 µg/mL (≈ 4.79 µM) | – | –
CC(C)=C1CC[C@@H](C)[C@]2(C[C@@H](c3ccoc3)OC2=O)[C@H]1CCC(=O)OC(C)(C)C | – | Not Active | –
CC(C)=C1CC[C@@H](C)[C@]2(C[C@@H](c3ccoc3)OC2=O)[C@H]1CCNC(=O)N=[N+]=[N-] | 4 µg/mL (≈ 10.4 µM) | – | –
O=C(Cn1ccnc1[N+](=O)[O-])NCc1ccccc1 [BENZNIDAZOLE] | 2.5 µg/mL (≈ 9.61 µM) | – | –
CC(C)=C1CC[C@@H](C)[C@]2(C[C@@H](c3ccoc3)OC2=O)[C@H]1CCN=C=O | – | Not Active | –
CC(C)=C1CC[C@@H](C)[C@]2(C[C@@H](c3ccoc3)OC2=O)[C@H]1CCC1=CC(=O)C=CC1=O | 2 µg/mL (≈ 4.9 µM) | – | –
C=C(C)[C@]12CC[C@@H](C)[C@]3(C[C@@H](c4ccoc4)OC3=O)[C@H]1CCC(=O)O2 | 5 µg/mL (≈ 14.5 µM) | – | –
CC(C)=C1CC[C@@H](C)[C@]2(C[C@@H](c3ccoc3)OC2=O)[C@H]1CCNC(=O)NCC[C@H]1C(=C(C)C)CC[C@@H](C)[C@]12C[C@@H](c1ccoc1)OC2=O | 5 µg/mL (≈ 7.57 µM) | – | –
CC(C)=C1CC[C@@H](C)[C@]2(C[C@@H](c3ccoc3)OC2=O)[C@H]1CCc1cc(O)ccc1O | 7 µg/mL (≈ 17.1 µM) | – | –
COC(=O)CC[C@@H]1[C@@]2(C[C@@H](c3ccoc3)OC2=O)[C@H](C)CC[C@@]12OC2(C)C | – | Not Active | –
CC(C)=C1CC[C@@H](C)[C@]2(C[C@@H](c3ccoc3)OC2=O)[C@H]1CCC(=O)O | 2 µg/mL (≈ 5.77 µM) | – | Active
